Test results published in PubChem BioAssay AID1259407 (Chemical Carcinogenesis Research Information System (CCRIS), 2018).
Calls of active or inactive are those of the source. How the calls were made is not given here.

System: CCRIS mutagenicity, Ames/micronucleus/aberration tests
Test: CCRIS mutagenicity studies
[1] = Test System: AMES SALMONELLA TYPHIMURIUM, Strain/Indicator: TA98, Metabolic Activation: NONE, Method: STANDARD PLATE
[2] = Test System: AMES SALMONELLA TYPHIMURIUM, Strain/Indicator: TA98, Metabolic Activation: RAT, LIVER, S-9, AROCLOR 1254, Method: STANDARD PLATE
[3] = Test System: AMES SALMONELLA TYPHIMURIUM, Strain/Indicator: TA100, Metabolic Activation: NONE, Method: STANDARD PLATE
[4] = Test System: AMES SALMONELLA TYPHIMURIUM, Strain/Indicator: TA100, Metabolic Activation: RAT, LIVER, S-9, AROCLOR 1254, Method: STANDARD PLATE
[5] = Test System: AMES SALMONELLA TYPHIMURIUM, Strain/Indicator: TA1535, Metabolic Activation: NONE, Method: STANDARD PLATE
[6] = Test System: AMES SALMONELLA TYPHIMURIUM, Strain/Indicator: TA1535, Metabolic Activation: RAT, LIVER, S-9, AROCLOR 1254, Method: STANDARD PLATE
[7] = Test System: AMES SALMONELLA TYPHIMURIUM, Strain/Indicator: TA1537, Metabolic Activation: NONE, Method: STANDARD PLATE
[8] = Test System: AMES SALMONELLA TYPHIMURIUM, Strain/Indicator: TA1537, Metabolic Activation: RAT, LIVER, S-9, AROCLOR 1254, Method: STANDARD PLATE
[9] = Test System: AMES SALMONELLA TYPHIMURIUM, Strain/Indicator: TA98, Metabolic Activation: NONE, Method: PREINCUBATION
[10] = Test System: AMES SALMONELLA TYPHIMURIUM, Strain/Indicator: TA100, Metabolic Activation: NONE, Method: PREINCUBATION
[11] = Test System: AMES SALMONELLA TYPHIMURIUM, Strain/Indicator: TA1535, Metabolic Activation: NONE, Method: PREINCUBATION
[12] = Test System: AMES SALMONELLA TYPHIMURIUM, Strain/Indicator: TA1537, Metabolic Activation: NONE, Method: PREINCUBATION

CN(C)CC/C=C1\c2ccccc2COc2ccccc21
mutagenic call [1]: inactive; negative | mutagenic call [2]: inactive; negative | mutagenic call [3]: inactive; negative | mutagenic call [4]: inactive; negative | mutagenic call [5]: inactive; negative | mutagenic call [6]: inactive; negative | mutagenic call [7]: inactive; negative | mutagenic call [8]: inactive; negative

N#CCc1ccc(Cl)cc1
mutagenic call [9]: inactive; negative | mutagenic call (Test System: AMES SALMONELLA TYPHIMURIUM, Strain/Indicator: TA98, Metabolic Activation: RAT, LIVER, S-9, PHENOBARBITAL AND BETA-NAPHTHOFLAVONE, Method: PREINCUBATION): inactive; negative | mutagenic call [10]: inactive; negative | mutagenic call (Test System: AMES SALMONELLA TYPHIMURIUM, Strain/Indicator: TA100, Metabolic Activation: RAT, LIVER, S-9, PHENOBARBITAL AND BETA-NAPHTHOFLAVONE, Method: PREINCUBATION): inactive; negative | mutagenic call (Test System: AMES SALMONELLA TYPHIMURIUM, Strain/Indicator: TA102, Metabolic Activation: NONE, Method: PREINCUBATION): inactive; negative | mutagenic call (Test System: AMES SALMONELLA TYPHIMURIUM, Strain/Indicator: TA102, Metabolic Activation: RAT, LIVER, S-9, SODIUM PHENOBARBITAL AND 5,6-BENZOFLAVONE, Method: PREINCUBATION): inactive; negative | mutagenic call (Test System: AMES SALMONELLA TYPHIMURIUM, Strain/Indicator: TA104, Metabolic Activation: NONE, Method: PREINCUBATION): inactive; negative | mutagenic call (Test System: AMES SALMONELLA TYPHIMURIUM, Strain/Indicator: TA104, Metabolic Activation: RAT, LIVER, S-9, SODIUM PHENOBARBITAL AND 5,6-BENZOFLAVONE, Method: PREINCUBATION): inactive; negative | mutagenic call [11]: inactive; negative | mutagenic call (Test System: AMES SALMONELLA TYPHIMURIUM, Strain/Indicator: TA1535, Metabolic Activation: RAT, LIVER, S-9, PHENOBARBITAL AND BETA-NAPHTHOFLAVONE, Method: PREINCUBATION): inactive; negative | mutagenic call [12]: inactive; negative | mutagenic call (Test System: AMES SALMONELLA TYPHIMURIUM, Strain/Indicator: TA1537, Metabolic Activation: RAT, LIVER, S-9, PHENOBARBITAL AND BETA-NAPHTHOFLAVONE, Method: PREINCUBATION): inactive; negative | mutagenic call (Test System: E. COLI, Strain/Indicator: WP2UVRA/PKM101, Metabolic Activation: NONE, Method: PREINCUBATION): inactive; negative | mutagenic call (Test System: E. COLI, Strain/Indicator: WP2UVRA/PKM101, Metabolic Activation: RAT, LIVER, S-9, PHENOBARBITAL AND BETA-NAPHTHOFLAVONE, Method: PREINCUBATION): inactive; negative | mutagenic call (Test System: E. COLI, Strain/Indicator: WP2UVRA, Metabolic Activation: NONE, Method: PREINCUBATION): inactive; negative | mutagenic call (Test System: E. COLI, Strain/Indicator: WP2UVRA, Metabolic Activation: RAT, LIVER, S-9, PHENOBARBITAL AND BETA-NAPHTHOFLAVONE, Method: PREINCUBATION): inactive; negative

CCN(CC)CCCNc1ccc2nc(C)n3c4ccc(O)cc4c(=O)c1c23
mutagenic call (Test System: CHINESE HAMSTER V-79, Strain/Indicator: V-79 (HGPRT)/6-THIOGUANINE, Metabolic Activation: NONE): active; positive

CC(=O)c1ccco1
mutagenic call [1]: inactive; negative | mutagenic call (Test System: AMES SALMONELLA TYPHIMURIUM, Strain/Indicator: TA98, Metabolic Activation: S-9, Method: STANDARD PLATE): active; positive | mutagenic call [3]: inactive; negative | mutagenic call (Test System: AMES SALMONELLA TYPHIMURIUM, Strain/Indicator: TA100, Metabolic Activation: S-9, Method: STANDARD PLATE): inactive; negative

NCCNCCN
mutagenic call (Test System: AMES SALMONELLA TYPHIMURIUM, Strain/Indicator: TA98, Metabolic Activation: HAMSTER, LIVER, S-9, AROCLOR 1254 (10%), Method: PREINCUBATION): inactive; negative | mutagenic call [9]: inactive; negative | mutagenic call [1]: inactive; negative | mutagenic call (Test System: AMES SALMONELLA TYPHIMURIUM, Strain/Indicator: TA98, Metabolic Activation: RAT LIVER S-9, PHENOBARBITAL AND BETA-NAPHTHOFLAVONE, Method: PREINCUBATION): inactive; negative | mutagenic call (Test System: AMES SALMONELLA TYPHIMURIUM, Strain/Indicator: TA98, Metabolic Activation: RAT, LIVER, S-9, AROCLOR 1254 (10%), Method: PREINCUBATION): inactive; negative | mutagenic call [2]: inactive; negative | mutagenic call (Test System: AMES SALMONELLA TYPHIMURIUM, Strain/Indicator: TA98, Metabolic Activation: RAT, LIVER, S-9, PCB, Method: PREINCUBATION): inactive; negative | mutagenic call (Test System: AMES SALMONELLA TYPHIMURIUM, Strain/Indicator: TA100, Metabolic Activation: HAMSTER, LIVER, S-9, AROCLOR 1254 (10%), Method: PREINCUBATION): inactive; negative | mutagenic call [10]: inactive; negative | mutagenic call [3]: inactive; negative | mutagenic call (Test System: AMES SALMONELLA TYPHIMURIUM, Strain/Indicator: TA100, Metabolic Activation: RAT LIVER S-9, PHENOBARBITAL AND BETA-NAPHTHOFLAVONE, Method: PREINCUBATION): inactive; negative | mutagenic call (Test System: AMES SALMONELLA TYPHIMURIUM, Strain/Indicator: TA100, Metabolic Activation: RAT, LIVER, S-9, AROCLOR 1254 (10%), Method: PREINCUBATION): inactive; negative | mutagenic call [4]: inactive; negative | mutagenic call (Test System: AMES SALMONELLA TYPHIMURIUM, Strain/Indicator: TA100, Metabolic Activation: RAT, LIVER, S-9, PCB, Method: PREINCUBATION): inactive; negative | mutagenic call (Test System: AMES SALMONELLA TYPHIMURIUM, Strain/Indicator: TA1535, Metabolic Activation: HAMSTER, LIVER, S-9, AROCLOR 1254 (10%), Method: PREINCUBATION): inactive; negative | mutagenic call [11]: inactive; negative | mutagenic call [5]: inactive; negative | mutagenic call (Test System: AMES SALMONELLA TYPHIMURIUM, Strain/Indicator: TA1535, Metabolic Activation: RAT LIVER S-9, PHENOBARBITAL AND BETA-NAPHTHOFLAVONE, Method: PREINCUBATION): inactive; negative | mutagenic call (Test System: AMES SALMONELLA TYPHIMURIUM, Strain/Indicator: TA1535, Metabolic Activation: RAT, LIVER, S-9, AROCLOR 1254 (10%), Method: PREINCUBATION): inactive; negative | mutagenic call [6]: inactive; negative | mutagenic call (Test System: AMES SALMONELLA TYPHIMURIUM, Strain/Indicator: TA1537, Metabolic Activation: HAMSTER, LIVER, S-9, AROCLOR 1254 (10%), Method: PREINCUBATION): inactive; negative | mutagenic call [12]: inactive; negative | mutagenic call [7]: inactive; negative | mutagenic call (Test System: AMES SALMONELLA TYPHIMURIUM, Strain/Indicator: TA1537, Metabolic Activation: RAT LIVER S-9, PHENOBARBITAL AND BETA-NAPHTHOFLAVONE, Method: PREINCUBATION): inactive; negative | mutagenic call (Test System: AMES SALMONELLA TYPHIMURIUM, Strain/Indicator: TA1537, Metabolic Activation: RAT, LIVER, S-9, AROCLOR 1254 (10%), Method: PREINCUBATION): inactive; negative | mutagenic call [8]: inactive; negative | mutagenic call (Test System: AMES SALMONELLA TYPHIMURIUM, Strain/Indicator: TA1538, Metabolic Activation: NONE, Method: STANDARD PLATE): inactive; negative | mutagenic call (Test System: AMES SALMONELLA TYPHIMURIUM, Strain/Indicator: TA1538, Metabolic Activation: RAT, LIVER, S-9, AROCLOR 1254, Method: STANDARD PLATE): inactive; negative | mutagenic call (Test System: CHINESE HAMSTER OVARY, Strain/Indicator: CHO (HGPRT)/6-THIOGUANINE, Metabolic Activation: NONE): inactive; negative | mutagenic call (Test System: CHINESE HAMSTER OVARY, Strain/Indicator: CHO (HGPRT)/6-THIOGUANINE, Metabolic Activation: RAT, LIVER, S-9, AROCLOR 1254): inactive; negative | mutagenic call (Test System: E.COLI, Strain/Indicator: WP2UVRA/PKM101, Metabolic Activation: NONE, Method: PREINCUBATION): inactive; negative | mutagenic call (Test System: E.COLI, Strain/Indicator: WP2UVRA/PKM101, Metabolic Activation: RAT LIVER S-9, PHENOBARBITAL AND BETA-NAPHTHOFLAVONE, Method: PREINCUBATION): inactive; negative | mutagenic call (Test System: UDS RAT HEPATOCYTES, Strain/Indicator: THY INCORP, Metabolic Activation: NONE, Method: SCINTILLATION SPECTROMETRY): inactive; negative
